In general, inhibition refers to the percentage by which the read-out fell short of the control. High values mean a response far below the control, low ones a response near the control. For orientation: IC50 means the concentration that gives 50% inhibition.

Here are results for six molecules from paper PMC8231572, “New Heparanase-Inhibiting Triazolo-Thiadiazoles Attenuate Primary Tumor Growth and Metastasis” (Cancers, 2021).

Entries after “also recorded” stand apart in the source; their conditions may differ.

For one data set, the system named is U87 human glioma cells. Put plainly: Cell invasion through Matrigel-coated transwell filters (Boyden chambers). It is filed as cell-based. The note with it: 10 µg/mL, 6 h, 37 °C, Matrigel-coated 8 μm transwell filters. The procedure:
Invasion assay was performed using Boyden chambers as reported previously. Briefly, U87 cells (5 × 10^5) were seeded into the upper chamber of the invasion chamber in a medium devoid of serum, and the lower chamber contained media supplemented with serum. The cell invasion on treatment with title compounds (4-MMI, 4-CMI; […]) was analyzed by staining with 0.5% crystal violet (Sigma-Aldrich) and photographed.
(§1) Figure 3 Inhibition of ECM degradation and cell invasion. (A) ECM degradation. Active heparanase (200 ng) was incubated for 5 h without (red) or with 5 and 25 µg/mL of 4-CMI, 4-MDI, or 4-MMI on dishes coated with sulfate-labeled ECM. Labeled material released from the ECM was subjected to gel filtration (Sepharose 6B). Heparan sulfate degradation fragments are typically eluted in fractions 18–30. (B) Cell invasion. U87 human glioma cells (2 × 10^5) were plated onto Matrigel-coated 8 μm transwell filters and incubated (6 h, 37 °C) in the absence (Con) or presence of 4-MMI or 4-CMI (10 µg/mL). (C) Dose–response showing the effect of compound 4-MMI (2.5, 10, and 40 µg/mL) on U87 cell invasion. Invading cells adhering to the lower side of the membrane were visualized (top panels) and quantified (bottom panel) in 7 random fields as described in ‘Materials and Methods’.

Data set [1] addresses T1, heparanase (Homo sapiens, UniProt Q9Y251).
T1 sequence (Q9Y251 158-543 limits assumed): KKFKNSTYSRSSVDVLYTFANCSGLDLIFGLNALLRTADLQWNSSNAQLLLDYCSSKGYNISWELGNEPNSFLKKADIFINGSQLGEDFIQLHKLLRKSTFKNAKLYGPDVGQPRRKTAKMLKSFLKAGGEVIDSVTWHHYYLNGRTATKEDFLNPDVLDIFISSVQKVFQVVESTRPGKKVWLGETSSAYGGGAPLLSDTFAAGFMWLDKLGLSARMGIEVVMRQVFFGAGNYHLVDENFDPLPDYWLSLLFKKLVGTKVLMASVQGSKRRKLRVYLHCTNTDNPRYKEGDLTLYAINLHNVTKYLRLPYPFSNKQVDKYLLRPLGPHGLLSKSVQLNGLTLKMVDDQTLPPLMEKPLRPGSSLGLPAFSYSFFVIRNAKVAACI
T1 sequence (Q9Y251 36-109 limits assumed): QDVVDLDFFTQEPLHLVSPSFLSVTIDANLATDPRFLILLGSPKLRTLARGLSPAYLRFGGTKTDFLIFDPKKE
Put plainly: ECM degradation heparanase assay (sulfate-labeled ECM, Sepharose 6B gel filtration). It is filed as biochemical. To be noted: heparanase 200 ng, 5 h; for inhibition of heparanase activity (ECM degradation): 5 µg/mL compound; for inhibition at 25 µg/mL: 25 µg/mL compound. The procedure: ECM degradation heparanase assay was carried out as reported earlier. Briefly, ECM labeled with sulfate [^35S] [25] and coating the surface of 35-mm cultures plates was treated with heparanase (200 ng/mL) with or without compounds under investigation. The medium was collected to examine the cleavage of HS proteoglycans and subjected to molecular sieving on Sepharose 6B columns. The radioactivity was measured in the eluted fractions (0.2 mL). Blue dextran and phenol red were used to mark the excluded volume (Vo) and included volume (Vt), respectively. The cleaved HS chains were eluted at 0.5 < Kav < 0.8 (fractions 16–32), and the nearly intact proteoglycan was eluted with the void volume.
To validate the results and better resemble the in vivo situation, we applied metabolically sulfate [Na2^35SO4] labeled extracellular matrix (ECM) deposited by cultured endothelial cells. This naturally produced substrate closely resembles the subendothelial basement membrane in its composition, biological function, and barrier properties. […] This semi-quantitative assay measures release of radioactive heparan sulfate (HS) degradation fragments from an insoluble extracellular matrix (ECM) that is firmly bound to a culture dish.
as §1
On the technique in general: Size exclusion chromatography separates by hydrodynamic size, large species first.

Data set [2] has as its target T1, heparanase. Put plainly: Colorimetric heparanase assay (fondaparinux/Arixtra cleavage, WST-1). It is filed as biochemical. The note with it: fondaparinux substrate, heparanase 140 pM, pH 5.0, 37 °C, 18 h; for IC50: read-out: IC50, inhibition of heparanase enzymatic activity (converted). The procedure: The assay was carried out in a 96-well plate in which the formation of the disaccharide product upon cleavage of fondaparinux (Arixtra, GlaxoSmithKline, Brentford, UK) was estimated using WST-1 tetrazolium salt as described earlier. In brief, the reaction system (100 μL) comprised sodium acetate buffer (pH 5.0, 40 mM) and fondaparinux ([…]) with or without different doses of chemicals under investigation. The assay was initiated by the addition of recombinant heparanase to make the final concentration of 140 pM. The reaction vessels were placed at 37 °C for 18 h, followed by the addition of stop solution (100 μL). WST-1 prepared in 0.1 M NaOH served as a stop solution. Thereafter, the plates were incubated at 60 °C for 60 min, and absorbance was measured at 584 nm. N-(4-([4-(1H-Benzoimidazol-2-yl)-arylamino]-methyl)-phenyl)-benzamide (compound #98) was used as a reference compound. The title compounds were examined for their inhibitory efficacy towards heparanase at 10 and 50 μg/mL. Compounds that yielded inhibition at these concentrations were further tested at lower concentrations to determine their IC50.
The newly synthesized compounds presented in Table 1 were examined for their ability to inhibit the enzymatic activity of recombinant heparanase. For the initial screening of compounds, we applied a colorimetric assay based on the cleavage of the synthetic heparin pentasaccharide fondaparinux (Arixtra). The assay measures the appearance of a disaccharide product of heparanase-catalyzed fondaparinux cleavage, using the tetrazolium salt WST-1 [23]. All compounds were first tested for inhibition of heparanase at 10 and 50 μg/mL (not shown). Compounds that yielded inhibition at these high concentrations were further examined at lower concentrations to determine their IC50 (Figure 2).
(Formazan colour is commonly taken as a measure of viable cells.)

Data set [3] relates to MPC-11 mouse myeloma cells. Put plainly: MPC-11 syngeneic myeloma tumor growth. Format: in vivo. The procedure: The mouse myeloma (MPC-11) cells were gently washed with PBS and the cell number was adjusted to 5 × 10^6 cells/mL. Thereafter, six-week-old female BALB/c mice (n = 6) were subcutaneously injected with washed MPC-11 cells (5 × 10^5/0.1 mL). The experimental animals were treated with either DMSO alone (0.1 mL/mouse) or 4-MMI (daily 200 μg/mouse, i.p.) starting from day 2 after the implantation of tumor cells, for 12 days. The tumor size was measured using calipers on day 8 and day 12. The tumor volume (V) was determined using the equation V = L × W^2 × 0.52, where L is the length and W is the width of the tumor. Lastly, the mice were euthanized and xenograft tumors were removed, weighed, and fixed using formalin for further studies.
Figure 5 MPC-11 tumor growth. Cells (MPC-11 mouse myeloma) from exponential cultures were washed with PBS and brought to a concentration of 5 × 10^6 cells/mL. Cell suspension (5 × 10^5/0.1 mL) was inoculated subcutaneously at the right flank of 6-week-old female BALB/c mice (n = 6). Mice were treated with either DMSO (0.1 mL/mouse) or test compound (daily 200 µg/mouse, i.p.), starting on day 2 after the injection of tumor cells, for 12 days. Tumor size was determined on days 8 and 12 by externally measuring the tumors in two dimensions using a caliper (A, p < 0.001). […]

In data set [4] the test system is 4T1 mouse breast carcinoma cells. Put plainly: 4T1 breast carcinoma experimental metastasis, IVIS bioluminescence imaging. It is filed as in vivo, BALB/c mice. The note with it: IVIS day 13. The procedure: 4TI mouse breast cancer cells tagged with luciferase (1.5 × 10^5/0.1 mL/BALB/c mouse) were inoculated intravenously. Test compounds (i.p., 500 μg/mouse) or DMSO (0.1 mL/mouse) were administered 20 min before cell injection. The mice were analyzed using IVIS bioluminescent on day 7 and day 13 post-inoculation. These cells metastasize primarily to the lungs.
The bioluminescence imaging of tumors generated from luciferase-expressing cancer cells was carried out using a highly sensitive, cooled charge-coupled device camera assembled in a specimen box (IVIS; Xenogen Corp, Hopkinton, MA, USA). The imaging has advantages such as real-time capture, non-invasive, and quantitative values. For this, the tumor-bearing mice were intraperitoneally administered with a luciferase substrate D-luciferin at a dose of 150 mg/kg body weight. The experimental animal was anesthetized and kept in a camera box followed by continuous exposure to isoflurane (EZAnesthesia, Palmer, PA, USA). The bioluminescence from the tumor mass was detected by the IVIS system, and, subsequently, the tumor burden was quantified using Living Image software (Xenogen).
Figure 4 Inhibition of 4T1 breast carcinoma experimental metastasis. […] Quantification of the luciferase intensities is shown graphically in the lower panel, as described in ‘Section 2. […]

A further data set deals with VEGF. Put plainly: Immunostaining of MPC-11 tumor sections with anti-VEGF antibodies. Format: in vivo, BALB/c mice. The note with it: tumors of mice treated daily with 200 μg/mouse i.p. The procedure:
Next, we examined the capacity of compound 4-MMI to inhibit myeloma primary tumor growth. For this purpose, we applied the MPC-11 syngeneic myeloma model. Briefly, BALB/c mice were implanted subcutaneously with MPC-11 mouse myeloma cells (0.5 × 10^6/mouse) and treated with either DMSO (0.1 mL/mouse) or 4-MMI (daily 200 μg/mouse, i.p.), starting on day two after tumor cell inoculation. Xenograft Tumor size was measured on days 8 and 12 (Figure 5A), resected, and weighed (Figure 5B) (see also Figure S2).
Figure S2. MPC-11 tumor growth. MPC-11 cells were inoculated subcutaneously at the right flank of 6-weeks old female Balb/C mice (n=6). Mice were treated with either DMSO (0.1 ml/mouse) or 4-MMI (daily 200 μg/mouse, i.p.) starting on day 2 after the injection of tumor cells, for 12 days. Tumor size was determined on days 8 and 12 (left panel). At the end of the experiment, mice were sacrificed and the tumors were resected and weighed (right panel). For more detail see figure 5.
Figure S3. Immunostaining. Tumors produced by untreated (control) a nd 4-MMI treated Balb/c mice were removed (day 13), fixed and embedded in paraffin. Five micron sections were subjected to immunostaining applying anti-VEGF antibodies. Shown are representative images (original magnification x100). […]

Another data set relates to tumor cell. More on the design: method as in PMID 28359266. The note with it: cited from earlier work.

On to `Oc1ccc(I)cc1-c1nn2c(-c3ccc(Cl)cc3)nnc2s1` [4-CMI, 2-(3-(4-chlorophenyl)-[1,2,4]triazolo[3,4-b][1,3,4]thiadiazol-6-yl)-4-iodophenol], for which the “invasion capacity of U87 cells” value with U87 human glioma cells is given as “significantly inhibited”. Moreover, on heparanase [1], the “inhibition of heparanase activity (ECM degradation)” value (“inhibition of heparanase activity” below) was “little or no inhibition” and the inhibition at 25 µg/mL was in the range of 50 to 70%. Also, the IC50 on heparanase [2] is 6.6 µM.
In the case of `Cc1ccc(-c2nnc3sc(-c4cc(I)cc(I)c4O)nn23)cc1` [4-MDI, 2,4-diiodo-6-(3-(p-tolyl)-[1,2,4]triazolo[3,4-b][1,3,4]thiadiazol-6-yl)phenol], at heparanase [1], the “inhibition of heparanase activity” value is reported as “little or no inhibition” and the inhibition at 25 µg/mL was in the range of 50 to 70%. At heparanase [2], the half-inhibitory concentration (IC50) was 22.3 µM.
Consider `Cc1ccc(-c2nnc3sc(-c4cc(I)ccc4O)nn23)cc1` [4-MMI, 4-iodo-2-(3-(p-tolyl)-[1,2,4]triazolo[3,4-b][1,3,4]thiadiazol-6-yl)phenol], for which the “tumor growth and tumor burden (tumor size days 8 and 12, tumor weight)” value in data set [3] (daily 200 μg/mouse i.p. from day 2 for 12 days, s.c. MPC-11 tumors) is “effectively and markedly decreased the rate of tumor growth and the tumor burden; also recorded: profound inhibition of tumor growth and burden”. Moreover, the “signs of distress and toxicity” value in data set [3] (daily administration of 200 ug/mouse/day) is “no signs of distress and toxicity”. In addition, the “invasion capacity of U87 cells” value in the data set with U87 human glioma cells is reported as “significantly inhibited”. At heparanase [1], the “inhibition of heparanase activity” value is given as “little or no inhibition” and the inhibition at 25 µg/mL lay within 50 to 70%. Moreover, the “inhibition of 4T1 experimental metastasis (extravasation and lung colonization, luciferase intensity)” value in data set [4] (500 μg/mouse i.p. 20 min before i.v. cell inoculation) was “inhibited the extravasation of 4T1 cells and their subsequent colonization in the mouse lungs; also recorded: nearly fourfold inhibition”. The IC50 at heparanase [2] was 7.14 µM. In the data set with VEGF, the “VEGF levels in tumor sections” value is given as “marked decrease in the levels of VEGF; also recorded: profound reduction in VEGF levels”.
Consider `Oc1c(I)cc(I)cc1-c1nn2c(-c3ccccc3)nnc2s1` [DTP, 2,4-Diiodo-6-(3-phenyl-[1,2,4]triazolo[3,4-b][1,3,4]thiadiazol-6yl)phenol, reference compound], for which the “IC50 values, inhibition of tumor cell proliferation, migration, and invasion in vitro” value in the data set with tumor cell is “micromolar range”. Further, the half-inhibitory concentration (IC50) at heparanase [2] was 54.9 µM.
On to “N-(4-([4-(1H-Benzoimidazol-2-yl)-arylamino]-methyl)-phenyl)-benzamide [Compound #98, reference compound]”, for which, at heparanase [2], the “IC50, inhibition of heparanase enzymatic activity” value worked out at 0.7 µg/mL.
As for Roneparstat [reference compound], the “inhibition of 4T1 experimental metastasis (luciferase intensity)” value in data set [4] (positive control 150 µg/mouse i.p. 20 min before i.v. cell inoculation) is listed as “comparable”.
